Measured values reported in US9173394B2, “Active agent combinations having insecticidal and acaricidal properties” (BAYER INTELLECTUAL PROPERTY GMBH, priority 2007, dated 2015).
Where two headings read alike, the source gives them in different places.

Tests used:
[1] = system: Tetranychus urticae; test: Tetranychus urticae test (OP-resistant/spray treatment) (Example D): infested bean leaf discs; assay type: in vivo
Description: (§1) Solvent: 78 parts by weight of acetone
Bean leaf discs (Phaseolus vulgaris) which are infested with all stages of the red spider mite (Tetranychus urticae) are sprayed with an active substance preparation of the desired concentration.
After the desired period of time, the effect is determined in %.

[2] = system: Myzus persicae; test: Myzus persicae test (Example A): spray treatment of infested cabbage leaves; assay type: in vivo
Excerpt: as §1

[3] = system: Phaedon cochleariae; test: Phaedon cochleariae larvae test (Example B): sprayed cabbage leaves populated with mustard beetle larvae; settings: for pest or weed control at 100 g/ha / pest or weed control at 0.8 g/ha / pest or weed control at 4 g/ha / pest or weed control at 20 g/ha / pest or weed control at 0.16 g/ha: Phaedon cochleariae, in Brassica oleracea, 144 h
[4] = system: Spodoptera frugiperda; test: Spodoptera frugiperda larvae test (Example C): sprayed cabbage leaves populated with army worm larvae; assay type: in vivo; settings: for Destruction in % after 6 d: Table C second series
Excerpt: as §1

[5] = Myzus persicae, 24 h, read-out: Destruction in % after 1 d
[6] = read-out: Destruction in % after 6 d, 100 g/ha, after 6 d, Table B fourth series
[7] = single active substance, 0.16 g/ha, after 1 d
[8] = read-out: Destruction in % after 6 d, 0.8 g/ha, after 6 d, Table B second series
[9] = read-out: Destruction in % after 6 d, 4 g/ha, after 6 d, Table B second series
[10] = read-out: Destruction in % after 6 d
[11] = Myzus persicae, 144 h, read-out: Destruction in % after 6 d
[12] = read-out: Destruction in % after 6 d, 100 g/ha, after 6 d, Table B second series (r19-r78)
[13] = Myzus persicae, 144 h, single active substance, 0.8 g/ha, after 6 d, read-out: Destruction in % after 6 d
[14] = 20 g/ha, after 6 d, Table B second series

## COCCOC(=O)C(C#N)(C(=O)c1ccccc1C(F)(F)F)c1ccc(C(C)(C)C)cc1 (stereo not drawn) [Cyflumetofen, 2-methoxyethyl alpha-cyano-alpha-[4-(1,1,dimethylethyl)phenyl]-beta-oxo-2-(trifluoromethyl)benzenepropanoate]
[1]; 4 g/ha
  Destruction in % after 6 d: 70%
[2]; [5]
  pest or weed control at 4 g/ha: 0%
[3]; [6]
  pest or weed control at 100 g/ha: 0%

## spinosad
[1]; 4 g/ha
  Destruction in % after 2 d: 20%
[2]; single active substance, 0.8 g/ha, after 6 d
  Destruction in % after 6 d: 0%
[4]; 0.8 g/ha, Table C third series
  Destruction in % after 2 d: 0%
[3]; 0.8 g/ha, after 6 d, Table B fourth series
  Destruction in % after 6 d: 50%

## emamectin-benzoate
[2]; [7]
  Destruction in % after 1 d: 0%
[4]; 0.8 g/ha, Table C first series
  Destruction in % after 2 d: 50%
[3]; 0.032 g/ha, Table B first series
  Destruction in % after 2 d: 0%

## abamectin
[1]; 0.0064 g/ha
  Destruction in % after 2 d: 50%
[2]; [7]
  Destruction in % after 1 d: 0%
[3]; 4 g/ha, Table B third series
  Destruction in % after 2 d: 67%

## COC(=O)N(C(=O)N1COC2(C(=O)OC)Cc3cc(Cl)ccc3C2=N1)c1ccc(OC(F)(F)F)cc1 (stereo not shown) [Indoxacarb, indoxacarb]
[2]; [5]
  pest or weed control at 20 g/ha: 0%
[4]; 0.8 g/ha
  Destruction in % after 6 d: 33%
[4]; 4 g/ha
  Destruction in % after 6 d: 83%
[3]; [8]
  pest or weed control at 0.8 g/ha: 0%
[3]; [9]
  pest or weed control at 4 g/ha: 33%

## CSC(=O)O/C(=C(/C#N)c1ccc(Cl)cc1)c1ccccc1C(F)(F)F [IKA 2002, O-{(E)-2-(4-chlorophenyl)-2-cyano-1-[2-(trifluoromethyl)phenyl]ethenyl}S-methyl thiocarbonate]
[3]; [10]
  pest or weed control at 20 g/ha: 0%
  pest or weed control at 100 g/ha: 0%

## O=C1C=C(N(Cc2ccc(Cl)nc2)CC(F)F)CO1 [Compound (I-5), 4-{[(6-chloropyrid-3-yl)methyl](2,2-difluoroethyl)amino}furan-2(5H)-one]
[1]; 0.16 g/ha
  Destruction in % after 2 d: 0%
[1]; 4 g/ha
  Destruction in % after 2 d: 0%
  Destruction in % after 6 d: 0%
[2]; [5]
  pest or weed control at 0.8 g/ha: 10%
  pest or weed control at 4 g/ha: 70%
[2]; [11]
  pest or weed control at 0.8 g/ha: 10%
[4]; 0.16 g/ha
  Destruction in % after 6 d: 0%
[4]; 0.8 g/ha
  Destruction in % after 6 d: 0%
[4]; 4 g/ha, Table C third series
  Destruction in % after 2 d: 0%
[4]; 20 g/ha, Table C third series
  Destruction in % after 2 d: 0%
[4]; 20 g/ha
  Destruction in % after 6 d: 0%
[3]; 0.8 g/ha, Table B first series
  Destruction in % after 2 d: 0%
[3]; 20 g/ha, after 6 d, Table B fourth series
  Destruction in % after 6 d: 0%
[3]; 100 g/ha, Table B third series
  Destruction in % after 2 d: 50%
[3]; read-out: Destruction in % after 6 d, 0.16 g/ha, after 6 d, Table B second series
  pest or weed control at 0.16 g/ha: 0%
[3]; [8]
  pest or weed control at 0.8 g/ha: 0%
[3]; [6]
  pest or weed control at 100 g/ha: 33%
[3]; [12]
  pest or weed control at 100 g/ha: 0%

## N#CCNC(=O)c1cnccc1C(F)(F)F [Flonicamid, flonicamid]
[2]; [5]
  pest or weed control at 0.8 g/ha: 0%
[3]; [12]
  pest or weed control at 100 g/ha: 0%

## CCc1nn(C)c(C(=O)NCc2ccc(C(C)(C)C)cc2)c1Cl [tebufenpyrad]
[1]; 4 g/ha
  Destruction in % after 2 d: 10%
[3]; 100 g/ha, Table B third series
  Destruction in % after 2 d: 50%

## CC[S+]([O-])c1c(C#N)nn(-c2c(Cl)cc(C(F)(F)F)cc2Cl)c1N (stereo not shown) [Ethiprole, ethiprole]
[2]; [5]
  pest or weed control at 4 g/ha: 0%
[2]; [11]
  pest or weed control at 4 g/ha: 0%
[3]; [8]
  pest or weed control at 0.8 g/ha: 33%
[3]; [9]
  pest or weed control at 4 g/ha: 67%

## CN(Cc1cnc(Cl)c(F)c1)C1=CC(=O)OC1 [Compound (I-6), 4-{[(6-chloro-5-fluoropyrid-3-yl)methyl](methyl)amino}furan-2(5H)-one]
[1]; 0.16 g/ha
  Destruction in % after 2 d: 0%
[1]; 4 g/ha
  Destruction in % after 6 d: 0%
[1]; 20 g/ha
  Destruction in % after 2 d: 0%
[1]; 100 g/ha
  Destruction in % after 6 d: 50%
[2]; Myzus persicae, 24 h, single active substance, 0.16 g/ha, after 1 d, read-out: Destruction in % after 1 d
  pest or weed control at 0.16 g/ha: 0%
[2]; Myzus persicae, 144 h, single active substance, 0.16 g/ha, after 6 d, read-out: Destruction in % after 6 d
  pest or weed control at 0.16 g/ha: 0%
[2]; [13]
  pest or weed control at 0.8 g/ha: 70%
[4]; 0.8 g/ha
  Destruction in % after 6 d: 0%
[4]; 4 g/ha, Table C third series
  Destruction in % after 2 d: 0%
[4]; 20 g/ha, Table C first series
  Destruction in % after 2 d: 0%
[4]; 20 g/ha, Table C third series
  Destruction in % after 2 d: 0%
[4]; 20 g/ha
  Destruction in % after 6 d: 0%
[3]; 0.8 g/ha, Table B first series
  Destruction in % after 2 d: 0%
[3]; [14]
  Destruction in % after 6 d: 0%
[3]; 100 g/ha, Table B third series
  Destruction in % after 2 d: 33%
[3]; [10]
  pest or weed control at 0.16 g/ha: 0%
  pest or weed control at 0.8 g/ha: 0%
  pest or weed control at 4 g/ha: 0%
  pest or weed control at 20 g/ha: 0%

## Cc1nn(C)c(/C(OC(=O)C(C)(C)C)=C(\C#N)c2ccc(C(C)(C)C)cc2)c1C [Cyenopyrafen, (1E)-2-cyano-2-[4-(1,1-dimethylethyl)phenyl]-1-(1,3,4-trimethyl-1H-pyrazol-5-yl)ethenyl 2,2-dimethylpropanoate]
[1]; 0.16 g/ha
  Destruction in % after 2 d: 0%
[1]; 0.8 g/ha
  Destruction in % after 2 d: 50%
[2]; [5]
  pest or weed control at 4 g/ha: 0%
[3]; [6]
  pest or weed control at 100 g/ha: 0%

## Nc1nc(N)nc(NC2CC2)n1 [Cyromazine, cyromazine]
[2]; [5]
  pest or weed control at 4 g/ha: 0%
[3]; read-out: Destruction in % after 6 d, 20 g/ha, after 6 d, Table B fourth series (r118-r181)
  pest or weed control at 20 g/ha: 0%
[3]; [6]
  pest or weed control at 100 g/ha: 0%

## Cc1nn(C)c(Oc2ccccc2)c1C=NOCc1ccc(C(=O)OC(C)(C)C)cc1 [Fenpyroximate, fenpyroximate]
[1]; 4 g/ha
  Destruction in % after 6 d: 0%
[2]; [5]
  pest or weed control at 4 g/ha: 0%

## Cc1ccc(/N=C/N(C)/C=N/c2ccc(C)cc2C)c(C)c1 [Amitraz, amitraz]
[2]; [5]
  pest or weed control at 4 g/ha: 0%
[3]; [6]
  pest or weed control at 100 g/ha: 0%

## O=C1C=C(N(CCF)Cc2ccc(Cl)nc2)CO1 [Compound (I-4), 4-{[(6-chloropyrid-3-yl)methyl](2-fluoroethyl)amino}furan-2(5H)-one]
[1]; 0.8 g/ha
  Destruction in % after 2 d: 0%
[1]; 4 g/ha
  Destruction in % after 2 d: 0%
  Destruction in % after 6 d: 0%
[1]; 20 g/ha
  Destruction in % after 2 d: 0%
[2]; Myzus persicae, 24 h, single active substance, 0.8 g/ha, after 1 d, read-out: Destruction in % after 1 d
  pest or weed control at 0.8 g/ha: 0%
[2]; Myzus persicae, 24 h, single active substance, 4 g/ha, after 1 d, read-out: Destruction in % after 1 d
  pest or weed control at 4 g/ha: 30%
[2]; [13]
  pest or weed control at 0.8 g/ha: 0%
[2]; Myzus persicae, 144 h, single active substance, 4 g/ha, after 6 d, read-out: Destruction in % after 6 d
  pest or weed control at 4 g/ha: 60%
[4]; 0.16 g/ha
  Destruction in % after 6 d: 0%
[4]; 0.8 g/ha
  Destruction in % after 6 d: 0%
[4]; 4 g/ha, Table C third series
  Destruction in % after 2 d: 0%
[4]; 20 g/ha, Table C third series
  Destruction in % after 2 d: 0%
[4]; 100 g/ha
  Destruction in % after 6 d: 0%
[3]; [14]
  Destruction in % after 6 d: 0%
[3]; 100 g/ha, Table B third series
  Destruction in % after 2 d: 33%
[3]; [10]
  pest or weed control at 0.8 g/ha: 0%
  pest or weed control at 20 g/ha: 0%
  pest or weed control at 100 g/ha: 33%

## CC(C)(C)c1ccc(CSc2cnn(C(C)(C)C)c(=O)c2Cl)cc1 [pyridaben]
[1]; 20 g/ha
  Destruction in % after 2 d: 50%
[3]; [6]
  pest or weed control at 100 g/ha: 0%

## N#Cc1nn(-c2c(Cl)cc(C(F)(F)F)cc2Cl)c(N)c1[S+]([O-])C(F)(F)F (stereo not shown) [Fipronil, fipronil]
[2]; [5]
  pest or weed control at 20 g/ha: 30%
[2]; [11]
  pest or weed control at 0.8 g/ha: 0%
[4]; 0.8 g/ha
  Destruction in % after 6 d: 17%

## milbemectin
[1]; 0.16 g/ha
  Destruction in % after 6 d: 0%
[2]; [7]
  Destruction in % after 1 d: 0%

## CNC(=O)c1cc(Cl)cc(C)c1NC(=O)c1cc(Br)nn1-c1ncccc1Cl [Rynaxapyr, 3-bromo-N-{4-chloro-2-methyl-6-[(methylamino)carbonyl]phenyl}-1-(3-chloropyridin-2-yl)-1H-pyrazole-5-carboxamide]
[2]; [5]
  pest or weed control at 0.8 g/ha: 0%
[2]; [11]
  pest or weed control at 0.032 g/ha: 0%
[4]; 0.16 g/ha
  Destruction in % after 6 d: 33%
[3]; [9]
  pest or weed control at 4 g/ha: 50%

## N#Cc1ccc(CC(=NNC(=O)Nc2ccc(OC(F)(F)F)cc2)c2cccc(C(F)(F)F)c2)cc1 (mixture of isomers) [Metaflumizone, 2-[2-(4-cyanophenyl)-1-[3-(trifluoromethyl)-phenyl]ethylidene]-N-[4-(trifluoromethoxy)phenyl]hydrazinecarboxamide]
[2]; [13]
  pest or weed control at 0.8 g/ha: 0%
[4]; 20 g/ha
  Destruction in % after 6 d: 0%
[4]; 100 g/ha
  Destruction in % after 6 d: 83%
[3]; [10]
  pest or weed control at 100 g/ha: 0%

## CC(C)c1cc(Oc2ccccc2)cc(C(C)C)c1NC(=S)NC(C)(C)C [Diafenthiuron, diafenthiuron]
[1]; 100 g/ha
  Destruction in % after 2 d: 0%
  Destruction in % after 6 d: 0%
[2]; [5]
  pest or weed control at 4 g/ha: 0%

## CCOCn1c(-c2ccc(Cl)cc2)c(C#N)c(Br)c1C(F)(F)F [Chlorfenapyr, chlorfenapyr]
[2]; [5]
  pest or weed control at 4 g/ha: 0%
[4]; 20 g/ha, Table C third series
  Destruction in % after 2 d: 33%
[3]; 100 g/ha, Table B third series
  Destruction in % after 2 d: 67%

## CC1=NNC(=O)N(/N=C/c2cccnc2)C1 [Pymetrozine, pymetrozine]
[2]; [5]
  pest or weed control at 0.16 g/ha: 0%
[2]; [11]
  pest or weed control at 0.8 g/ha: 50%
[3]; [6]
  pest or weed control at 100 g/ha: 0%
